This is an account of results in PubChem BioAssay (NCI).

Some test systems named below: A498 renal; A549 NSCLC; CCRF-CEM leukemia; EKVX NSCLC; HCT-15 colon; HOP-62 NSCLC; HT29 colon; KM12 colon; LOX IMVI melanoma; NCI-H460 lung; OVCAR-3 ovarian; OVCAR-4 ovarian; OVCAR-5 ovarian; RPMI-8226 leukemia; RXF 393 renal; SF-295 CNS; SF-539 CNS; SK-MEL-28 melanoma; SNB-75 CNS; TK-10 renal.
Assay in all cases: NCI anticancer screen, dose series, 48 h

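96-well plates; 48 h exposure; 5 concentrations. Endpoints by linear interpolation between flanking doses. Not reached: highest tested concentration assigned. Definition used: TGI = concentration required for complete inhibition of growth.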

Consider `COc1nc(NC2OC(CO)C(O)C(O)C2O)c(N)c(=O)[nH]1` (configuration not stated), for which the TGI in the assay with A498 renal, in the assay with A549 NSCLC, in the assay on CCRF-CEM leukemia, in the assay with EKVX NSCLC, in the assay on HCT-15 colon and with HOP-62 NSCLC was over 100 µM throughout. Besides, the TGI in the assay on HT29 colon, with KM12 colon, in the assay with LOX IMVI melanoma, with NCI-H460 lung, in the assay with OVCAR-3 ovarian and in the assay on OVCAR-4 ovarian was over 100 µM each time. Moreover, the TGI in the assay on OVCAR-5 ovarian, in the assay with RPMI-8226 leukemia, in the assay with RXF 393 renal, in the assay with SF-295 CNS, in the assay with SF-539 CNS and in the assay with SK-MEL-28 melanoma was over 100 µM each time. In the assay on SNB-75 CNS, the TGI was over 100 µM.

For the molecule `COc1ccc(-c2c3c(nc4nc(SCC(=O)c5ccc(Br)cc5)nc(N)c24)CCCC3)cc1OC`, the TGI with A549 NSCLC, with CCRF-CEM leukemia, with EKVX NSCLC, with HCT-15 colon, with HOP-62 NSCLC and with HT29 colon was over 100 µM each time. Also, the TGI with KM12 colon, with LOX IMVI melanoma, in the assay with NCI-H460 lung, with OVCAR-3 ovarian, with OVCAR-4 ovarian and in the assay on OVCAR-5 ovarian was over 100 µM in each case. In addition, the TGI was over 100 µM in the assay on RPMI-8226 leukemia; 59.2 µM in the assay on RXF 393 renal; over 100 µM in the assay on SF-295 CNS; over 100 µM in the assay with SF-539 CNS; over 100 µM with SK-MEL-28 melanoma; 28.1 µM in the assay with SNB-75 CNS. The TGI in the assay on TK-10 renal was over 100 µM.

Regarding `COC(=O)Cc1c(C2C(CC(=O)OC)c3ccccc3N2C2OC(CO)C(O)C(O)C2O)[nH]c2ccccc12` (configuration not stated), the TGI in the assay with A498 renal, with A549 NSCLC, in the assay on CCRF-CEM leukemia, with EKVX NSCLC, in the assay on HCT-15 colon and in the assay with HOP-62 NSCLC was over 100 µM throughout. Further, the TGI in the assay on HT29 colon, in the assay on KM12 colon, in the assay with NCI-H460 lung, in the assay on OVCAR-3 ovarian, in the assay on OVCAR-4 ovarian and in the assay on OVCAR-5 ovarian was over 100 µM throughout. The TGI in the assay on RPMI-8226 leukemia, in the assay on SF-295 CNS, in the assay on SK-MEL-28 melanoma, in the assay on SNB-75 CNS and with TK-10 renal was over 100 µM throughout.

Regarding `O=C1CCC2COc3ccc(O)c1c32` (configuration not stated), the TGI in the assay with A498 renal, with A549 NSCLC, with CCRF-CEM leukemia, in the assay with EKVX NSCLC, in the assay on HCT-15 colon and in the assay with HT29 colon was over 100 µM throughout. Moreover, the TGI with LOX IMVI melanoma, with NCI-H460 lung, in the assay with OVCAR-3 ovarian, in the assay with OVCAR-4 ovarian, with RPMI-8226 leukemia and in the assay on RXF 393 renal was over 100 µM each time. Moreover, the TGI in the assay on SF-295 CNS, in the assay on SF-539 CNS, with SK-MEL-28 melanoma, in the assay on SNB-75 CNS and in the assay with TK-10 renal was over 100 µM in each case.
